Laboratory results from ChEMBL document CHEMBL5131391, “One-pot three-component synthesis of novel pyrazolo[3,4-b]pyridines as potent antileukemic agents” (Eur J Med Chem, 2022).
pIC50: −log10 of the molar value.

Tests used:
Type in all cases: functional
[1] = test system: K562; test: Antiproliferative activity against human K562 cells assessed as reduction in cell viability incubated for 72 hrs by resazurin dye based assay; conditions: K562, 72 h
[2] = test system: RPMI-8226; test: Antiproliferative activity against human RPMI-8226 cells assessed as growth inhibition at 10 uM measured after 48 hrs by NCI protocol based SRB assay relative to control; conditions: read-out: GI
[3] = test system: CCRF-CEM; test: Antiproliferative activity against human CCRF-CEM cells assessed as growth inhibition at 10 uM measured after 48 hrs by NCI protocol based SRB assay relative to control; conditions: read-out: GI
[4] = test system: HL-60(TB); test: Antiproliferative activity against human HL-60(TB) cells assessed as growth inhibition at 10 uM measured after 48 hrs by NCI protocol based SRB assay relative to control; conditions: read-out: GI
[5] = test system: K562; test: Antiproliferative activity against human K562 cells assessed as growth inhibition at 10 uM measured after 48 hrs by NCI protocol based SRB assay relative to control; conditions: read-out: GI
[6] = test system: HOP-62; test: Antiproliferative activity against human HOP-62 cells assessed as growth inhibition at 10 uM measured after 48 hrs by NCI protocol based SRB assay relative to control; conditions: read-out: GI
[7] = test system: HOP-92; test: Antiproliferative activity against human HOP-92 cells assessed as growth inhibition at 10 uM measured after 48 hrs by NCI protocol based SRB assay relative to control; conditions: read-out: GI
[8] = test system: NCI-H460; test: Antiproliferative activity against human NCI-H460 cells assessed as growth inhibition at 10 uM measured after 48 hrs by NCI protocol based SRB assay relative to control; conditions: read-out: GI
[9] = test system: NCI-H226; test: Antiproliferative activity against human NCI-H226 cells assessed as growth inhibition at 10 uM measured after 48 hrs by NCI protocol based SRB assay relative to control; conditions: read-out: GI
[10] = test system: HCT-15; test: Antiproliferative activity against human HCT-15 cells assessed as growth inhibition at 10 uM measured after 48 hrs by NCI protocol based SRB assay relative to control; conditions: read-out: GI
[11] = test system: SW-620; test: Antiproliferative activity against human SW-620 cells assessed as growth inhibition at 10 uM measured after 48 hrs by NCI protocol based SRB assay relative to control; conditions: read-out: GI
[12] = test system: SF-539; test: Antiproliferative activity against human SF-539 cells assessed as growth inhibition at 10 uM measured after 48 hrs by NCI protocol based SRB assay relative to control; conditions: read-out: GI
[13] = test system: SF-295; test: Antiproliferative activity against human SF-295 cells assessed as growth inhibition at 10 uM measured after 48 hrs by NCI protocol based SRB assay relative to control; conditions: read-out: GI
[14] = test system: SF-268; test: Antiproliferative activity against human SF-268 cells assessed as growth inhibition at 10 uM measured after 48 hrs by NCI protocol based SRB assay relative to control; conditions: read-out: GI
[15] = test system: SNB-75; test: Antiproliferative activity against human SNB-75 cells assessed as growth inhibition at 10 uM measured after 48 hrs by NCI protocol based SRB assay relative to control; conditions: read-out: GI
[16] = test system: SNB-19; test: Antiproliferative activity against human SNB-19 cells assessed as growth inhibition at 10 uM measured after 48 hrs by NCI protocol based SRB assay relative to control; conditions: read-out: GI
[17] = test system: U-251; test: Antiproliferative activity against human U-251 cells assessed as growth inhibition at 10 uM measured after 48 hrs by NCI protocol based SRB assay relative to control; conditions: read-out: GI
[18] = test system: Malme-3M; test: Antiproliferative activity against human Malme-3M cells assessed as growth inhibition at 10 uM measured after 48 hrs by NCI protocol based SRB assay relative to control; conditions: read-out: GI
[19] = test system: SK-MEL-5; test: Antiproliferative activity against human SK-MEL-5 cells assessed as growth inhibition at 10 uM measured after 48 hrs by NCI protocol based SRB assay relative to control; conditions: read-out: GI
[20] = test system: UACC-62; test: Antiproliferative activity against human UACC-62 cells assessed as growth inhibition at 10 uM measured after 48 hrs by NCI protocol based SRB assay relative to control; conditions: read-out: GI
[21] = test system: IGROV-1; test: Antiproliferative activity against human IGROV-1 cells assessed as growth inhibition at 10 uM measured after 48 hrs by NCI protocol based SRB assay relative to control; conditions: read-out: GI
[22] = test system: OVCAR-3; test: Antiproliferative activity against human OVCAR-3 cells assessed as growth inhibition at 10 uM measured after 48 hrs by NCI protocol based SRB assay relative to control; conditions: read-out: GI
[23] = test system: OVCAR-4; test: Antiproliferative activity against human OVCAR-4 cells assessed as growth inhibition at 10 uM measured after 48 hrs by NCI protocol based SRB assay relative to control; conditions: read-out: GI
[24] = test system: OVCAR-8; test: Antiproliferative activity against human OVCAR-8 cells assessed as growth inhibition at 10 uM measured after 48 hrs by NCI protocol based SRB assay relative to control; conditions: read-out: GI
[25] = test system: NCI/ADR-RES; test: Antiproliferative activity against human NCl/ADR-RES cells assessed as growth inhibition at 10 uM measured after 48 hrs by NCI protocol based SRB assay relative to control; conditions: read-out: GI
[26] = test system: 786-0; test: Antiproliferative activity against human 786-0 cells assessed as growth inhibition at 10 uM measured after 48 hrs by NCI protocol based SRB assay relative to control; conditions: read-out: GI
[27] = test system: ACHN; test: Antiproliferative activity against human ACHN cells assessed as growth inhibition at 10 uM measured after 48 hrs by NCI protocol based SRB assay relative to control; conditions: read-out: GI
[28] = test system: RXF 393; test: Antiproliferative activity against human RXF 393 cells assessed as growth inhibition at 10 uM measured after 48 hrs by NCI protocol based SRB assay relative to control; conditions: read-out: GI
[29] = test system: UO-31; test: Antiproliferative activity against human UO-31 cells assessed as growth inhibition at 10 uM measured after 48 hrs by NCI protocol based SRB assay relative to control; conditions: read-out: GI
[30] = test system: PC-3; test: Antiproliferative activity against human PC-3 cells assessed as growth inhibition at 10 uM measured after 48 hrs by NCI protocol based SRB assay relative to control; conditions: read-out: GI
[31] = test system: DU-145; test: Antiproliferative activity against human DU-145 cells assessed as growth inhibition at 10 uM measured after 48 hrs by NCI protocol based SRB assay relative to control; conditions: read-out: GI
[32] = test system: MDA-MB-231; test: Antiproliferative activity against human MDA-MB-231 cells assessed as growth inhibition at 10 uM measured after 48 hrs by NCI protocol based SRB assay relative to control; conditions: read-out: GI
[33] = test system: MCF7; test: Antiproliferative activity against human MCF7 cells assessed as growth inhibition at 10 uM measured after 48 hrs by NCI protocol based SRB assay relative to control; conditions: read-out: GI
[34] = test system: T47D; test: Antiproliferative activity against human T47D cells assessed as growth inhibition at 10 uM measured after 48 hrs by NCI protocol based SRB assay relative to control; conditions: read-out: GI
[35] = test system: MV4-11; test: Antiproliferative activity against human MV4-11 cells assessed as reduction in cell viability incubated for 72 hrs by resazurin dye based assay; conditions: MV4-11, 72 h
[36] = test system: CCRF-CEM; test: Antiproliferative activity against human CEM cells assessed as reduction in cell viability incubated for 72 hrs by resazurin dye based assay
[37] = test system: UACC-257; test: Antiproliferative activity against human UACC-257 cells assessed as growth inhibition at 10 uM measured after 48 hrs by NCI protocol based SRB assay relative to control; conditions: read-out: GI

Compound	pIC50 [1]	inhibition of growth at 10 µM [2]	inhibition of growth at 10 µM [3]	inhibition of growth at 10 µM [4]	inhibition of growth at 10 µM [5]	inhibition of growth at 10 µM [6]	inhibition of growth at 10 µM [7]	inhibition of growth at 10 µM [8]	inhibition of growth at 10 µM [9]	inhibition of growth at 10 µM [10]	inhibition of growth at 10 µM [11]	inhibition of growth at 10 µM [12]	inhibition of growth at 10 µM [13]	inhibition of growth at 10 µM [14]	inhibition of growth at 10 µM [15]	inhibition of growth at 10 µM [16]	inhibition of growth at 10 µM [17]	inhibition of growth at 10 µM [18]	inhibition of growth at 10 µM [19]	inhibition of growth at 10 µM [20]	also measured
Cc1ccc(-c2nc3c(c(-c4ccccc4)nn3-c3ccccc3)c(-c3ccc(O)cc3)c2C#N)cc1	5.06	79%	61%	68%	78%	60%	26%	73%	21%	72%	38%	85%	120%	40%	60%	31%	59%	25%	23%	37%	inhibition of growth at 10 µM [21]: 18%; inhibition of growth at 10 µM [22]: 36%; inhibition of growth at 10 µM [23]: 18%; inhibition of growth at 10 µM [24]: 31%; inhibition of growth at 10 µM [25]: 19%; inhibition of growth at 10 µM [26]: 82%; inhibition of growth at 10 µM [27]: 33%; inhibition of growth at 10 µM [28]: 110%; inhibition of growth at 10 µM [29]: 61%; inhibition of growth at 10 µM [30]: 66%; inhibition of growth at 10 µM [31]: 40%; inhibition of growth at 10 µM [32]: 55%; inhibition of growth at 10 µM [33]: 74%; inhibition of growth at 10 µM [34]: 39%; pIC50 [35]: 5.48; pIC50 [36]: 4.87
N#Cc1c(-c2ccc(Cl)cc2)nc2c(c(-c3ccccc3)nn2-c2ccccc2)c1-c1ccc(O)cc1	4.68	83%	73%	68%	92%	51%	44%	75%	35%	73%	46%	89%	99%	54%	58%	35%	67%	39%	44%	47%	inhibition of growth at 10 µM [37]: 15%; inhibition of growth at 10 µM [21]: 31%; inhibition of growth at 10 µM [22]: 52%; inhibition of growth at 10 µM [23]: 36%; inhibition of growth at 10 µM [24]: 51%; inhibition of growth at 10 µM [25]: 43%; inhibition of growth at 10 µM [26]: 83%; inhibition of growth at 10 µM [27]: 44%; inhibition of growth at 10 µM [28]: 127%; inhibition of growth at 10 µM [29]: 70%; inhibition of growth at 10 µM [30]: 89%; inhibition of growth at 10 µM [31]: 50%; inhibition of growth at 10 µM [32]: 64%; inhibition of growth at 10 µM [33]: 81%; inhibition of growth at 10 µM [34]: 45%; pIC50 [35]: 4.60; pIC50 [36]: 4.37
